Counter-ions that a name gives are not always drawn.
Experiments:
[1] = system: DOI-induced head twitches in mice; assay: Observation for head twitches in DOI-treated mice; format: in vivo; conditions: statistically significant reduction in head twitching score; DOI-treated mice; 0.1-30 mg/kg subcutaneous injection
Text: (§1) Instruments) were used for rat experiments (details on startle apparatus and measures, see Male Non-Swiss Albino mice and male Sprague-Dawley rats (Harlan Sprague-Dawley) were housed (4 mice/cage; 2 rats/cage) in rooms with temperature and humidity controlled and water and food (Harlan Teklad) freely available. Mice were kept on a 12-hr light:dark cycle, whereas rats were kept on a 12-hr reverse light:dark cycle. For locomotor and observation experiments in mice, plastic 20×20×30 cm activity cages were equipped with photocell beams (AccuScan Instruments). Startle chambers (San Diego Instruments) were used for rat experiments (for details on startle apparatus and measures, see Mansbach et al., (1988) Psychopharmacology 94:507-14).
Mice were treated with 2.5 mg/kg DOI i.p. Five min later, mice were treated with AC-90179 s.c. and placed into activity cages. Ten min later, mice were observed using a repeated sampling technique. […] Each dose combination was tested in a separate group of animals (n=8) and the experimenter was blind to drug conditions. Head twitch scores were averaged followed by analysis of variance (ANOVA) and post-hoc Dunnett's t-test comparisons.
The effect of various compounds on head twitch behavior in mice treated with DOI was observed as described in Example 139. Animals received 0.1-30 mg/kg of the compound indicated via subcutaneous injection. MED indicates the minimum effective dose at which a statistically significant reduction in head twitching score (described above) was observed. MED=minimum effective dose in vivo.

[2] = target: T1, 5-HT2A receptor (Homo sapiens, UniProt P28223); assay: Receptor Selection and Amplification (R-SAT) assay, 5-HT2A inverse agonism; format: cell-based; conditions: for Percent Efficacy: compared to ritanserin
T1 construct: expressed in transfected cells; host or cells: NIH3T3 (mouse fibroblasts), pSI expression vector
T1 sequence (P28223 whole entry): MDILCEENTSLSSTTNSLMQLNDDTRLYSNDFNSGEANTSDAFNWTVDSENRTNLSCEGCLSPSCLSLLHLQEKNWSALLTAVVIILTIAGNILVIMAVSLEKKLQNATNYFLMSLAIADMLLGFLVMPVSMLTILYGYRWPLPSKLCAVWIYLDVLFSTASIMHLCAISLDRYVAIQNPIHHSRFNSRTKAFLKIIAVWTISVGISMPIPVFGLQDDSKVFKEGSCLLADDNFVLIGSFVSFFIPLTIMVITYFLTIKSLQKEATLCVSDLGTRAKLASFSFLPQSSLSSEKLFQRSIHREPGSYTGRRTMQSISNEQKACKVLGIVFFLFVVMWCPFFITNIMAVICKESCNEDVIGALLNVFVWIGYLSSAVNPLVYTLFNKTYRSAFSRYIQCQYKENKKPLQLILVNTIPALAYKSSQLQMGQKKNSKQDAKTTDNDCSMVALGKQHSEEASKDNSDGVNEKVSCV
Description: Briefly, NIH3T3 cells were grown in 96 well tissue culture plates to 70-80% confluence. Cells were transfected for 12-16 hours with plasmid DNAs using superfect (Qiagen Inc.) as per manufacture's protocols. R-SAT's were generally performed with 50 ng/well of receptor and 20 ng/well of Beta-galactosidase plasmid DNA. […] Large-scale transfections, cells were transfected for 12-16 hours, then trypsinized and frozen in DMSO. Frozen cells were later thawed, plated at 10,000-40,000 cells per well of a 96 well plate that contained drug. With both methods, cells were then grown in a humidified atmosphere with 5% ambient CO2 for five days. Media was then removed from the plates and marker gene activity was measured by the addition of the beta-galactosidase substrate ONPG (in PBS with 5% NP-40). […] All data were analyzed using the computer program XLFit (IDBSm).

[3] = system: locomotor activity of mice (dizocilpine- or d-amphetamine-induced hyperactivity, spontaneous activity); assay: Locomotor activity in mice; format: in vivo; conditions: i.p., 15 min
Text: as §1
For hyperactivity experiments, mice were treated with 0.3 mg/kg dizocilpine or 3.0 mg/kg d-amphetamine i.p. 15 min before the session. Five minutes after the pretreatment, mice were treated with AC-90179 s.c. and placed into the activity cages. For spontaneous activity, AC-90179 was administered alone. Locomotor data were collected during a 15 min session without habituation in a lit room. Each dose combination was tested in a separate group of animals (n=8). Distance traveled (cm) was calculated and averaged followed by ANOVA and post-hoc Dunnett's t-test comparisons.

Row | Compound | MED (minimum effective dose in vivo) [1] | Percent Efficacy ([2]; Table 4 of Example 137) | also measured
1 | COc1ccc(CC(=O)N(Cc2ccc(Cl)cc2)C2CCN(C(C)C)CC2)cc1 [Compound 42ELH79, 2-(4-Methoxyphenyl)-N-(4-chlorbenzyl)-N-(1-isopropylpiperidin-4-yl) acetamide] | ≦10 mg/kg | 110% | pIC50 ([2]; Table 4 of Example 137): 8.5
2 | CCN1CCC(N(Cc2ccc(Cl)cc2)C(=O)Cc2ccc(OC)cc2)CC1 [Compound 42ELH85, 2-(4-Methoxyphenyl)-N-(4-chlorbenzyl)-N-(1-ethylpiperidin-4-yl)acetamide] | ≦10 mg/kg | 118% | 
3 | COc1ccc(CC(=O)N(Cc2ccc(Cl)cc2)C2CCN(C3CCCC3)CC2)cc1 [Compound 42ELH91, 2-(4-Methoxyphenyl)-N-(4-chlorbenzyl)-N-(1-cyclopentylpiperidin-4-yl)acetamide] | >10 mg/kg | 108% | 
4 | Cc1ccc(CN(C(=O)Cc2ccc(N(C)C)cc2)C2CCN(C)CC2)cc1 [Compound 57MBT70-6D, N-((4-methylphenyl)methyl)-N-(1-methylpiperidin-4-yl)-2-(4-(N,N-dimethylamino)phenyl)acetamide hydrochloride] |  |  | IC50 ([2]; Table 4 of Example 137): 10 nM
5 | C[C@]12N[C@H](Cc3ccccc31)c1ccccc12 [Dizocilpine, dizocilpine, reference compound] |  |  | distance traveled (average) ([3]; 0.3 mg/kg): 2625 cm
6 | C[C@H](N)Cc1ccccc1 [d-amphetamine, reference compound] |  |  | distance traveled (average) ([3]; 3.0 mg/kg): 3367 cm
7 | N-(2-Phenylethyl)-N-(piperidin-4-yl)-4-methoxyphenylmethylacetamide [Compound 26HCH80-2] |  |  | pIC50 (average) ([2]; Table 1): 7.78; Efficacy (average) ([2]; percent maximal repression compared to ritanserin, Table 1): 89%

— patent US9296694B2, “Azacyclic compounds” (ACADIA Pharmaceuticals Inc., priority 2000, dated 2016)
